The results in this text go back to patent US10005731B2, “Modulators of the retinoid-related orphan receptor gamma (ROR-gamma) for use in the treatment of autoimmune and inflammatory diseases” (Glaxo Group Limited, priority 2012, dated 2018).

Structures can show the parent of a compound that is named as a salt. Where two headings read alike, the source gives them in different places.

Test [1] concerns Mouse CD4+ cells. The experiment in a line: Th17 cell differentiation assay (IL-17 ELISA). In kind it is cell-based. The procedure: Mouse CD4+cells were purified using the CD4+ T Cell Isolation II Kit according to manufacturer's instructions (Miltenyi Biotec). 96 well plates were pre-coated with anti-mCD3 antibody. Un-coated wells were used as controls. CD4+ Cells were resuspended in RPMI 1640 complete medium and were added to the 96-well plates. Cytokine cocktail and the compound were then added to the wells. Antibodies and cytokines (all from R&D Systems) used in the assay were selected from the following: anti-mCD3; anti-mCD28; anti-mIFNγ; anti-mIL4; mIL-6; mIL-23; mIL-1β; hTGF-β1. The culture was incubated at 37° C. for 3 days and supernatants were collected for ELISA. The IL-17 ELISAs were performed according to manufacturer's instructions (R&D Systems). The results were analyzed using Prism software with non-linear regression to determine pIC50.
For orientation: In an ELISA, binding on a coated surface is turned into a signal by an enzyme label.

The target in test [2] is T1, Human RORγ Ligand Binding Domain (RORγ-LBD) (Homo sapiens, UniProt P51449).
T1 construct: made in house; host or cells: E. coli BL21(DE3), modified pET21a
T1 sequence (P51449 263-518): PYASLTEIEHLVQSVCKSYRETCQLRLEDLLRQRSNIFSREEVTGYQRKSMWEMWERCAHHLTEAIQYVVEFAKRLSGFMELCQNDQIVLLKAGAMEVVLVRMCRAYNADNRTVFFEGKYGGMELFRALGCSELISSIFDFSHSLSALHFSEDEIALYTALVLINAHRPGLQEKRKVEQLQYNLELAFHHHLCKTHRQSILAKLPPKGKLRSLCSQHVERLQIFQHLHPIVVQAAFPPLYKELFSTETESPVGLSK
The experiment in a line: Dual Fluorescence Energy Transfer (FRET) assay, RORγ-LBD / SRC1(2) co-activator peptide interaction. In kind it is biochemical. The following applies: mean of multiple test results if tested more than once; read-out: pIC50 in the dual FRET assay (converted). The text has this: This assay is based on the knowledge that nuclear receptors interact with cofactors (transcription factors) in a ligand dependent manner. RORγ is a typical nuclear receptor in that it has an AF2 domain in the ligand binding domain (LBD) which interacts with co-activators.
The assay measures ligand-mediated interaction of the co-activator peptide with the purified bacterial-expressed RORγ ligand binding domain (RORγ-LBD) to indirectly assess ligand binding. RORγ has a basal level of interaction with the co-activator SRC1(2) in the absence of ligand, thus it is possible to find ligands that inhibit or enhance the RORγ/SRC1(2) interaction.
Human RORγ Ligand Binding Domain (RORγ-LBD) was expressed in E.coli strain BL21(DE3) as an amino-terminal polyhistidine tagged fusion protein. DNA encoding this recombinant protein was sub-cloned into a modified pET21a expression vector (Novagen).
Approximately 50 g E. coli cell pellet was resuspended in 300 mL of lysis buffer (30 mM imidazole pH 7.0 and 150 mM NaCl). Cells were lysed by sonication and cell debris was removed by centrifugation for 30 minutes at 20,000 g at 4° C. […] The clarified lysate was loaded onto a column (XK-26) packed with ProBond Nickel Chelating resin (Invitrogen), pre-equilibrated with 30 mM imidazole pH 7.0 and 150 mM NaCl. After washing to baseline absorbance with the equilibration buffer, the column was developed with a gradient from 30 to 500 mM imidazole pH 7.0. Column fractions containing the RORγ-LBD protein were pooled and concentrated to a volume of 5 mls. The concentrated protein was loaded onto a Superdex 200 column pre-equilibrated with 20 mM Tris-CI pH 7.2 and 200 mM NaCl. The fractions containing the desired RORγ-LBD protein were pooled together.
Purified RORγ-LBD was buffer exchanged by exhaustive dialysis [3 changes of at least 20 volumes (>8000x)] against PBS [100mM NaPhosphate, pH 8 and 150mM NaC1]. […] The modified protein was distributed into aliquots, frozen on dry ice and stored at −80° C. The biotinylated RORγ-LBD was subjected to mass spectrometric analysis to reveal the extent of modification by the biotinylation reagent.
An appropriate amount of Europium labeled Streptavidin was then added to the biotinylated SRC1(2) solution in a tube to give a final concentration of 10 nM. The tube was inverted gently and incubated for 15 minutes at room temperature. Twenty-fold excess biotin from the 10 mM stock solution was added and the tube was inverted gently and incubated for 10 minutes at room temperature.
Preparation of APC labeled RORγ-LBD: biotinylated RORγ-LBD solution was prepared by adding an appropriate amount of biotinylated RORγ-LBD from the stock solution to a buffer containing 10 mM of freshly added DTT from solid to give a final concentration of 40 nM. An appropriate amount of APC labeled Streptavidin was then added to the biotinylated RORγ-LBD solution in a tube to give a final concentration of 20 nM. The tube was inverted gently and incubated for 15 minutes at room temperature. Twenty-fold excess biotin from the 10 mM stock solution was then added and the tube was inverted gently and incubated for 10 minutes at room temperature.
The reaction mixtures were incubated for 5 minutes. […] The plates were incubated for lhr and then read on ViewLux in Lance mode for EU/APC.

The mark [3] stands for this setting: 72 h, mean pIC50, IL-17 ELISA, 3 days culture, detection limit of the assay 5, read-out: pIC50 in the Th17 cell differentiation assay (converted).

For `Cc1c(CN2CCN(C(=O)C3CCCC3)[C@@H](C)C2)cc(F)cc1NC(=O)c1cccc(C#N)c1` [Example 66, (S)-3-cyano-N-(3-((4-(cyclopentanecarbonyl)-3-methylpiperazin-1-yl)methyl)-5-fluoro-2-methylphenyl)benzamide], the IC50 is around 0.794 nM in test [1] (setting [3]); 0.4 ng/mL in test [1] (table with percutaneous study, read-out: Th17 cell differentiation assay IC50); 0.794 nM in test [1] (table with percutaneous study, read-out: Th17 cell differentiation assay pIC50 (converted)); around 39.8 nM in test [2].

For the compound `Cc1c(CN2CCN(C(=O)C3CCCC3)[C@@H](C)C2)cc(Cl)cc1NC(=O)c1cccc(C#N)c1` [Example 193, (S)-N-(5-chloro-3-((4-(cyclopentanecarbonyl)-3-methylpiperazin-1-yl)methyl)-2-methylphenyl)-3-cyanobenzamide, trifluoroacetic acid salt], the IC50 in test [1] (setting [3]) was around 5.01 nM; in test [2] it was around 63.1 nM.
